Assay results from US20250154130A1, “NOVEL THR BETA ANALOGS AND USES THEREOF” (MADRIGAL PHARMACEUTICALS, INC., priority 2022, published 2025).

Columns and labels:
TR alpha LBD-GST = target: T1, TR alpha LBD-GST (Homo sapiens, UniProt P10827); assay: Thyroid Receptor Alpha Coactivator - Agonist (LanthaScreen TR-FRET coactivator recruitment assay); assay type: biochemical; settings: 1% DMSO, relative to T3 response
T1 construct: incubated with the TR alpha LBD-GST or TR beta LBD-GST; purchased ThermoFIsher
Procedure: Thyroid receptor beta and thyroid receptor alpha coactivator recruitment assays were performed using LanthaScreen™ TR-FRET TR alpha or beta Coactivator Assay Kits (ThermoFIsher). The control agonist 3,3′,5-Triiodo-L-thyronine sodium salt, T3 (SIGMA) was used to validate the assay. Test compound and/or vehicle was incubated with the TR alpha LBD-GST or TR beta LBD-GST and coactivator peptide (Fluorescein-SRC2-2 (LKEKHKILHRLLQDSSSPV) (SEQ ID NO: 1)) for 30 minutes at RT. Determination of the amount of complex formed was read spectrofluorimetrically (excitation: 337 nm, emission: 520/490 nm) on a PHERAstar FS instrument (BMG). […]

TR beta LBD-GST = target: T2, TR beta LBD-GST (Homo sapiens, UniProt P10828); assay: Thyroid Receptor Beta Coactivator - Agonist (LanthaScreen TR-FRET coactivator recruitment assay); assay type: biochemical; settings: 1% DMSO, relative to T3 response
T2 construct: incubated with the TR alpha LBD-GST or TR beta LBD-GST; purchased ThermoFIsher
T2 sequence (P10828 217-461 limits assumed): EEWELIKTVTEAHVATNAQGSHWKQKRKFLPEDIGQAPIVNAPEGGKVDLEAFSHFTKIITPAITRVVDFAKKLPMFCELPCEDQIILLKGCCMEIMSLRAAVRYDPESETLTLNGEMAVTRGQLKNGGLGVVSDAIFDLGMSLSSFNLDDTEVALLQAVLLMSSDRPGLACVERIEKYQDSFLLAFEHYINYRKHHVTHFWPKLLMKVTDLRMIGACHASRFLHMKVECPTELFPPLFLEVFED
Procedure: Thyroid receptor beta and thyroid receptor alpha coactivator recruitment assays were performed using LanthaScreen™ TR-FRET TR alpha or beta Coactivator Assay Kits (ThermoFIsher). The control agonist 3,3′,5-Triiodo-L-thyronine sodium salt, T3 (SIGMA) was used to validate the assay. Test compound and/or vehicle was incubated with the TR alpha LBD-GST or TR beta LBD-GST and coactivator peptide (Fluorescein-SRC2-2 (LKEKHKILHRLLQDSSSPV) (SEQ ID NO: 1)) for 30 minutes at RT. Determination of the amount of complex formed was read spectrofluorimetrically (excitation: 337 nm, emission: 520/490 nm) on a PHERAstar FS instrument (BMG). […] Compounds were screened at 30, 10, 3, 1, 0.3, 0.1, and 0.03 μM.

T1 sequence (P10827 163-410 isoform P10827-2 limits assumed, other chains not shown): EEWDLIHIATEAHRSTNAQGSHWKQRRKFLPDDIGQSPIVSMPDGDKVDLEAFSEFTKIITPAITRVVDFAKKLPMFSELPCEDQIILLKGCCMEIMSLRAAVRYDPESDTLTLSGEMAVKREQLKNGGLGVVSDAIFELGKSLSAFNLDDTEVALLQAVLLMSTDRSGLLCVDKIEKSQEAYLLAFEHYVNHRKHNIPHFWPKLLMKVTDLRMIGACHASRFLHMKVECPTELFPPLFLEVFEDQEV

Agonist Response (TR alpha LBD-GST; test compound 10 nM): 1.1 | Agonist Response (TR alpha LBD-GST; test compound 0.03 mcM): 1.4 | Agonist Response (TR alpha LBD-GST; test compound 0.1 mcM): 2.2 | Agonist Response (TR alpha LBD-GST; test compound 0.3 mcM): 3.9 | Agonist Response (TR alpha LBD-GST; test compound 1 mcM): 12.7 | Agonist Response (TR alpha LBD-GST; test compound 3 mcM): 19.2 | Agonist Response (TR alpha LBD-GST; test compound 10 mcM): 19.5 | Agonist Response (TR alpha LBD-GST; test compound 30 mcM): 18.6 | Agonist Response (TR beta LBD-GST; test compound 10 nM): −4.5 | Agonist Response (TR beta LBD-GST; test compound 0.03 mcM): −1.2 | Agonist Response (TR beta LBD-GST; test compound 0.1 mcM): 0.7 | Agonist Response (TR beta LBD-GST; test compound 0.3 mcM): 10.5 | Agonist Response (TR beta LBD-GST; test compound 1 mcM): 28.7 | Agonist Response (TR beta LBD-GST; test compound 3 mcM): 31.1 | Agonist Response (TR beta LBD-GST; test compound 10 mcM): 32.6 | Agonist Response (TR beta LBD-GST; test compound 30 mcM): 31.8
SMILES: N#Cc1cn(-c2cc(Cl)c(Oc3n[nH]c(=O)c4ccccc34)c(Cl)c2)c(=O)[nH]c1=O [Compound g, 1-(3,5-dichloro-4-((4-oxo-3,4-dihydrophthalazin-1-yl)oxy)phenyl)-2,4-dioxo-1,2,3,4-tetrahydropyrimidine-5-carbonitrile]
